Assays:
Test in all cases: Histone peptide microarray
Assay type in all cases: binding, human
PHF13 = details: GST-tagged PHF13; sheet Array Heatmap; each array performed twice, total n = 4
Summary of the method: (§1)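 GST-PHD reader, 0.5 μM, probed on 293-peptide histone array (single/combinatorial PTMs); optimized array protocol; signal = mean ± SD, n = 4.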

ING4 = details: GST-tagged ING4; sheet Array Heatmap; each array performed twice, total n = 4
Summary of the method: as §1

CHD5 (PPCC) = details: GST-tagged CHD5 (PPCC = Dual PHD + Dual Chromodomain); sheet Array Heatmap; each array performed twice, total n = 4
Summary of the method: as §1

KDM4C (TTP) = details: GST-tagged KDM4C (TTP = Tandem Tudor domain + PHD); sheet Array Heatmap; each array performed twice, total n = 4
Summary of the method: as §1

ING5 = details: GST-tagged ING5; sheet Array Heatmap; each array performed twice, total n = 4
Summary of the method: as §1

RAG2 = details: GST-tagged RAG2; sheet Array Heatmap; each array performed twice, total n = 4
Summary of the method: as §1

ING2 = details: GST-tagged ING2; sheet Array Heatmap; each array performed twice, total n = 4
Summary of the method: as §1

KDM5A (1) = details: GST-tagged KDM5A (1); sheet Array Heatmap; each array performed twice, total n = 4
Summary of the method: as §1

CHD4 (PPCC) = details: GST-tagged CHD4 (PPCC = Dual PHD + Dual Chromodomain); sheet Array Heatmap; each array performed twice, total n = 4
Summary of the method: as §1

KDM7A = details: GST-tagged KDM7A; sheet Array Heatmap; each array performed twice, total n = 4
Summary of the method: as §1

PHF21A = details: GST-tagged PHF21A; sheet Array Heatmap; each array performed twice, total n = 4
Summary of the method: as §1

DPF2 (PPC2W2) = details: GST-tagged DPF2 (PPC2W2 = Dual PHD + C2W2-type Zn-finger); sheet Array Heatmap; each array performed twice, total n = 4
Summary of the method: as §1

AIRE (PP) = details: GST-tagged AIRE (PP); sheet Array Heatmap; each array performed twice, total n = 4
Summary of the method: as §1

PHRF1 (RP) = details: GST-tagged PHRF1 (RP); sheet Array Heatmap; each array performed twice, total n = 4
Summary of the method: as §1

PHF8 = details: GST-tagged PHF8; sheet Array Heatmap; each array performed twice, total n = 4
Summary of the method: as §1

KDM5B (3) = details: GST-tagged KDM5B (3); sheet Array Heatmap; each array performed twice, total n = 4
Summary of the method: as §1

BPTF (PB) = details: GST-tagged BPTF (PB = PHD + Bromodomain); sheet Array Heatmap; each array performed twice, total n = 4
Summary of the method: as §1

ING1 = details: GST-tagged ING1; sheet Array Heatmap; each array performed twice, total n = 4
Summary of the method: as §1

PHF2 = details: GST-tagged PHF2; sheet Array Heatmap; each array performed twice, total n = 4
Summary of the method: as §1

MLL5 = details: GST-tagged MLL5; sheet Array Heatmap; each array performed twice, total n = 4
Summary of the method: as §1

KDM5B (1) = details: GST-tagged KDM5B (1); sheet Array Heatmap; each array performed twice, total n = 4
Summary of the method: as §1

KDM5A (3) = details: GST-tagged KDM5A (3); sheet Array Heatmap; each array performed twice, total n = 4
Summary of the method: as §1

BAZ2B = details: GST-tagged BAZ2B; sheet Array Heatmap; each array performed twice, total n = 4
Summary of the method: as §1

MORC3 (CW) = details: GST-tagged MORC3 (CW = CW-type Zn-finger); sheet Array Heatmap; each array performed twice, total n = 4
Summary of the method: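 GST-tagged PHD finger readers were expressed, purified and applied at 0.5 μM to a microarray of 293 synthetic histone peptides carrying single or combinatorial PTMs, using an optimized protocol. Binding signals are averages with standard deviation from 4 replicates.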

ING3 = details: GST-tagged ING3; sheet Array Heatmap; each array performed twice, total n = 4
Summary of the method: as §1

CHD5 (PCC) = details: GST-tagged CHD5 (PCC = PHD + Dual Chromodomain); sheet Array Heatmap; each array performed twice, total n = 4
Summary of the method: as §1

TAF3 = details: GST-tagged TAF3; sheet Array Heatmap; each array performed twice, total n = 4
Summary of the method: as §1

TRIM66 (PB) = details: GST-tagged TRIM66 (PB = PHD + Bromodomain); sheet Array Heatmap; each array performed twice, total n = 4
Summary of the method: as §1

SP140L = details: GST-tagged SP140L; sheet Array Heatmap; each array performed twice, total n = 4
Summary of the method: as §1

DIDO1 = details: GST-tagged DIDO1; sheet Array Heatmap; each array performed twice, total n = 4
Summary of the method: as §1

PHF23 = details: GST-tagged PHF23; sheet Array Heatmap; each array performed twice, total n = 4
Summary of the method: as §1

Substance | Array Heatmap signal (histone peptide microarray) (PHF13) | Array Heatmap signal (histone peptide microarray) (ING4) | Array Heatmap signal (histone peptide microarray) (CHD5 (PPCC)) | Array Heatmap signal (histone peptide microarray) (KDM4C (TTP)) | Array Heatmap signal (histone peptide microarray) (ING5) | Array Heatmap signal (histone peptide microarray) (RAG2) | Array Heatmap signal (histone peptide microarray) (ING2) | Array Heatmap signal (histone peptide microarray) (KDM5A (1)) | Array Heatmap signal (histone peptide microarray) (CHD4 (PPCC)) | Array Heatmap signal (histone peptide microarray) (KDM7A) | Array Heatmap signal (histone peptide microarray) (PHF21A) | Array Heatmap signal (histone peptide microarray) (DPF2 (PPC2W2)) | Array Heatmap signal (histone peptide microarray) (AIRE (PP)) | Array Heatmap signal (histone peptide microarray) (PHRF1 (RP)) | Array Heatmap signal (histone peptide microarray) (PHF8) | Array Heatmap signal (histone peptide microarray) (KDM5B (3)) | Array Heatmap signal (histone peptide microarray) (BPTF (PB)) | Array Heatmap signal (histone peptide microarray) (ING1) | Array Heatmap signal (histone peptide microarray) (PHF2) | Array Heatmap signal (histone peptide microarray) (MLL5) | other results
H3K4ac + K9ac + S10p + K14ac + K18ac: H3 1-20 | 0.6482 | 0.4935 | 0.5941 | 0.5421 | 0.3888 | 0.2541 | 0.5779 | 0.5046 | 0.5822 | 0.4698 | 0.4919 | 0.6938 | 0.5295 | 0.429 | 0.3899 | 0.4819 | 0.3689 | 0.5313 | 0.4731 | 0.555 | Array Heatmap signal (histone peptide microarray) (KDM5B (1)): 0.6478; Array Heatmap signal (histone peptide microarray) (KDM5A (3)): 0.4188; Array Heatmap signal (histone peptide microarray) (BAZ2B): 0.5889; Array Heatmap signal (histone peptide microarray) (MORC3 (CW)): 0.3767; Array Heatmap signal (histone peptide microarray) (ING3): 0.4823; Array Heatmap signal (histone peptide microarray) (CHD5 (PCC)): 0.8446; Array Heatmap signal (histone peptide microarray) (TAF3): 0.2701; Array Heatmap signal (histone peptide microarray) (TRIM66 (PB)): 0.6786; Array Heatmap signal (histone peptide microarray) (SP140L): 0.3597; Array Heatmap signal (histone peptide microarray) (DIDO1): 0.6753; Array Heatmap signal (histone peptide microarray) (PHF23): 0.5331
H3K4ac + K9ac: H3 1-20 | 0.5976 | 0.4565 | 0.5625 | 0.5223 | 0.3535 | 0.2758 | 0.6174 | 0.4969 | 0.558 | 0.4244 | 0.4614 | 0.6975 | 0.5254 | 0.6615 | 0.3733 | 0.6207 | 0.3822 | 0.5202 | 0.54 | 0.5339 | Array Heatmap signal (histone peptide microarray) (KDM5B (1)): 0.6807; Array Heatmap signal (histone peptide microarray) (KDM5A (3)): 0.5679; Array Heatmap signal (histone peptide microarray) (BAZ2B): 0.5296; Array Heatmap signal (histone peptide microarray) (MORC3 (CW)): 0.3754; Array Heatmap signal (histone peptide microarray) (ING3): 0.4596; Array Heatmap signal (histone peptide microarray) (CHD5 (PCC)): 0.8893; Array Heatmap signal (histone peptide microarray) (TAF3): 0.3083; Array Heatmap signal (histone peptide microarray) (TRIM66 (PB)): 0.6641; Array Heatmap signal (histone peptide microarray) (SP140L): 0.3499; Array Heatmap signal (histone peptide microarray) (DIDO1): 0.6345; Array Heatmap signal (histone peptide microarray) (PHF23): 0.5225

Reference: article PMC6979384, “Characterization of the plant homeodomain (PHD) reader family for their histone tail interactions” (Epigenetics & Chromatin, 2020)
